Data: patent publication US10582709B2, “Butyrolactones as herbicides” (FMC Corporation, priority 2015, dated 2020)

Tests used:
Format in all cases: in vivo
[1] = tested on: barnyardgrass (Echinochloa crus-galli); assay: Test B flooded paddy test, barnyardgrass; conditions: 500 g ai/ha; applied to paddy water at 2-leaf stage; 13 to 15 d; scale 0 no effect to 100 complete control
Protocol: (§1) Plant species in the flooded paddy test selected from rice (Oryza sativa), sedge, umbrella (small-flower umbrella sedge, Cyperus difformis), ducksalad (Heteranthera limosa), and barnyardgrass (Echinochloa crus-galli) were grown to the 2-leaf stage for testing. At time of treatment, test pots were flooded to 3 cm above the soil surface, treated by application of test compounds directly to the paddy water, and then maintained at that water depth for the duration of the test. Treated plants and controls were maintained in a greenhouse for 13 to 15 d, after which time all species were compared to controls and visually evaluated. Plant response ratings, summarized in Table B, are based on a scale of 0 to 100 where 0 is no effect and 100 is complete control. A dash (-) response means no test result.

[2] = tested on: ducksalad (Heteranthera limosa); assay: Test B flooded paddy test, ducksalad; conditions: 500 g ai/ha; applied to paddy water at 2-leaf stage; 13 to 15 d; scale 0 no effect to 100 complete control
Protocol: as §1

rice (Oryza sativa) = assay: Test B flooded paddy test, rice; conditions: 500 g ai/ha; applied to paddy water at 2-leaf stage; 13 to 15 d; scale 0 no effect to 100 complete control
Protocol: as §1

[3] = tested on: sedge, umbrella (small-flower umbrella sedge, Cyperus difformis); assay: Test B flooded paddy test, umbrella sedge; conditions: 500 g ai/ha; applied to paddy water at 2-leaf stage; 13 to 15 d; scale 0 no effect to 100 complete control
Protocol: as §1

[4] = tested on: barnyardgrass (Echinochloa crus-galli); assay: Test A preemergence, barnyardgrass; conditions: visual rating after approx. 10 d, 0 to 100 scale, 0 no effect, 100 complete control
Excerpt: (§2) Seeds of plant species selected from barnyardgrass (Echinochloa crus-galli), crabgrass (large crabgrass, Digitaria sanguinalis), kochia (Kochia scoparia), ragweed (common ragweed, Ambrosia elatior), morningglory (Ipomoea spp.), velvetleaf (Abutilon theophrasti), ryegrass, Italian (Italian ryegrass, Lolium multiflorum), foxtail, giant (giant foxtail, Setaria faberii), wheat (Triticum aestivum), corn (Zea mays), and pigweed (Amaranthus retroflexus), were planted into a blend of loam soil and sand and treated preemergence with a directed soil spray using test chemicals formulated in a non-phytotoxic solvent mixture which included a surfactant. At the same time, plants selected from these crop and weed species and also blackgrass (Alopecurus myosuroides), and galium (catchweed bedstraw, Galium aparine), were planted in pots containing the same blend of loam soil and sand and treated with postemergence applications of test chemicals formulated in the same manner. Plants ranged in height from 2 to 10 cm and were in the one- to two-leaf stage for the postemergence treatment. Treated plants and untreated controls were maintained in a greenhouse for approximately 10 d, after which time all treated plants were compared to untreated controls and visually evaluated for injury. Plant response ratings, summarized in Table A, are based on a 0 to 100 scale where 0 is no effect and 100 is complete control. A dash (-) response means no test result.

kochia (Kochia scoparia) [5] = assay: Test A preemergence, kochia; conditions: visual rating after approx. 10 d, 0 to 100 scale, 0 no effect, 100 complete control
Excerpt: as §2

[6] = tested on: ragweed (common ragweed, Ambrosia elatior); assay: Test A preemergence, ragweed; conditions: visual rating after approx. 10 d, 0 to 100 scale, 0 no effect, 100 complete control
Excerpt: as §2

[7] = tested on: ryegrass, Italian (Italian ryegrass, Lolium multiflorum); assay: Test A preemergence, Italian ryegrass; conditions: visual rating after approx. 10 d, 0 to 100 scale, 0 no effect, 100 complete control
Excerpt: as §2

[8] = tested on: foxtail, giant (giant foxtail, Setaria faberii); assay: Test A preemergence, giant foxtail; conditions: visual rating after approx. 10 d, 0 to 100 scale, 0 no effect, 100 complete control
Excerpt: as §2

[9] = tested on: pigweed (Amaranthus retroflexus); assay: Test A preemergence, pigweed; conditions: visual rating after approx. 10 d, 0 to 100 scale, 0 no effect, 100 complete control
Excerpt: as §2

[10] = tested on: barnyardgrass (Echinochloa crus-galli); assay: Test A postemergence, barnyardgrass; conditions: visual rating after approx. 10 d, 0 to 100 scale, 0 no effect, 100 complete control
Excerpt: as §2

kochia (Kochia scoparia) [11] = assay: Test A postemergence, kochia; conditions: visual rating after approx. 10 d, 0 to 100 scale, 0 no effect, 100 complete control
Excerpt: as §2

[12] = tested on: ragweed (common ragweed, Ambrosia elatior); assay: Test A postemergence, ragweed; conditions: visual rating after approx. 10 d, 0 to 100 scale, 0 no effect, 100 complete control
Excerpt: as §2

[13] = tested on: ryegrass, Italian (Italian ryegrass, Lolium multiflorum); assay: Test A postemergence, Italian ryegrass; conditions: visual rating after approx. 10 d, 0 to 100 scale, 0 no effect, 100 complete control
Excerpt: as §2

[14] = tested on: foxtail, giant (giant foxtail, Setaria faberii); assay: Test A postemergence, giant foxtail; conditions: visual rating after approx. 10 d, 0 to 100 scale, 0 no effect, 100 complete control
Excerpt: as §2

[15] = tested on: wheat (Triticum aestivum); assay: Test A postemergence, wheat; conditions: visual rating after approx. 10 d, 0 to 100 scale, 0 no effect, 100 complete control
Excerpt: as §2

corn (Zea mays) = assay: Test A postemergence, corn; conditions: visual rating after approx. 10 d, 0 to 100 scale, 0 no effect, 100 complete control
Excerpt: as §2

[16] = tested on: pigweed (Amaranthus retroflexus); assay: Test A postemergence, pigweed; conditions: visual rating after approx. 10 d, 0 to 100 scale, 0 no effect, 100 complete control
Excerpt: as §2

[17] = tested on: blackgrass (Alopecurus myosuroides); assay: Test A postemergence, blackgrass; conditions: visual rating after approx. 10 d, 0 to 100 scale, 0 no effect, 100 complete control
Excerpt: as §2

[18] = tested on: galium (catchweed bedstraw, Galium aparine); assay: Test A postemergence, galium; conditions: visual rating after approx. 10 d, 0 to 100 scale, 0 no effect, 100 complete control
Excerpt: as §2

O=C(Nc1ccccc1F)C1C(=O)OCC1c1ccc(F)c(C(F)(F)F)c1 (racemic) [Compound 16]
Plant response rating, Flood, Barnyardgrass [1]: 0
Plant response rating, Flood, Ducksalad [2]: 0
Plant response rating, Flood, Rice (rice (Oryza sativa)): 0
Plant response rating, Flood, Sedge, Umbrella [3]: 0
Plant response rating, Barnyardgrass ([4]; 125 g ai/ha): 30
Plant response rating, Barnyardgrass ([4]; 500 g ai/ha): 60
Plant response rating, Kochia (kochia (Kochia scoparia) [5]; 125 g ai/ha): 0
Plant response rating, Kochia (kochia (Kochia scoparia) [5]; 500 g ai/ha): 0
Plant response rating, Ragweed ([6]; 125 g ai/ha): 0
Plant response rating, Ragweed ([6]; 500 g ai/ha): 0
Plant response rating, Ryegrass, Italian ([7]; 125 g ai/ha): 0
Plant response rating, Ryegrass, Italian ([7]; 500 g ai/ha): 0
Plant response rating, Foxtail, Giant ([8]; 125 g ai/ha): 50
Plant response rating, Foxtail, Giant ([8]; 500 g ai/ha): 80
Plant response rating, Pigweed ([9]; 125 g ai/ha): 0
Plant response rating, Pigweed ([9]; 500 g ai/ha): 0
Plant response rating, Barnyardgrass ([10]; 125 g ai/ha): 20
Plant response rating, Barnyardgrass ([10]; 500 g ai/ha): 50
Plant response rating, Kochia (kochia (Kochia scoparia) [11]; 125 g ai/ha): 0
Plant response rating, Kochia (kochia (Kochia scoparia) [11]; 500 g ai/ha): 0
Plant response rating, Ragweed ([12]; 125 g ai/ha): 0
Plant response rating, Ragweed ([12]; 500 g ai/ha): 0
Plant response rating, Ryegrass, Italian ([13]; 125 g ai/ha): 0
Plant response rating, Ryegrass, Italian ([13]; 500 g ai/ha): 0
Plant response rating, Foxtail, Giant ([14]; 125 g ai/ha): 20
Plant response rating, Foxtail, Giant ([14]; 500 g ai/ha): 40
Plant response rating, Wheat ([15]; 125 g ai/ha): 0
Plant response rating, Wheat ([15]; 500 g ai/ha): 0
Plant response rating, Corn (corn (Zea mays); 125 g ai/ha): 0
Plant response rating, Corn (corn (Zea mays); 500 g ai/ha): 0
Plant response rating, Pigweed ([16]; 125 g ai/ha): 0
Plant response rating, Pigweed ([16]; 500 g ai/ha): 0
Plant response rating, Blackgrass ([17]; 125 g ai/ha): 0
Plant response rating, Blackgrass ([17]; 500 g ai/ha): 0
Plant response rating, Galium ([18]; 125 g ai/ha): 0
Plant response rating, Galium ([18]; 500 g ai/ha): 0

O=C(Nc1cccc(F)c1C(F)(F)F)C1C(=O)OCC1c1ccc(F)c(C(F)(F)F)c1 (racemic) [Compound 18]
Plant response rating, Flood, Barnyardgrass [1]: 0
Plant response rating, Flood, Ducksalad [2]: 0
Plant response rating, Flood, Rice (rice (Oryza sativa)): 0
Plant response rating, Flood, Sedge, Umbrella [3]: 0
Plant response rating, Barnyardgrass ([4]; 125 g ai/ha): 0
Plant response rating, Barnyardgrass ([4]; 500 g ai/ha): 0
Plant response rating, Kochia (kochia (Kochia scoparia) [5]; 125 g ai/ha): 0
Plant response rating, Kochia (kochia (Kochia scoparia) [5]; 500 g ai/ha): 0
Plant response rating, Ragweed ([6]; 125 g ai/ha): 0
Plant response rating, Ragweed ([6]; 500 g ai/ha): 0
Plant response rating, Ryegrass, Italian ([7]; 125 g ai/ha): 0
Plant response rating, Ryegrass, Italian ([7]; 500 g ai/ha): 0
Plant response rating, Foxtail, Giant ([8]; 125 g ai/ha): 0
Plant response rating, Foxtail, Giant ([8]; 500 g ai/ha): 40
Plant response rating, Pigweed ([9]; 125 g ai/ha): 0
Plant response rating, Pigweed ([9]; 500 g ai/ha): 0
Plant response rating, Barnyardgrass ([10]; 125 g ai/ha): 0
Plant response rating, Barnyardgrass ([10]; 500 g ai/ha): 0
Plant response rating, Kochia (kochia (Kochia scoparia) [11]; 125 g ai/ha): 0
Plant response rating, Kochia (kochia (Kochia scoparia) [11]; 500 g ai/ha): 0
Plant response rating, Ragweed ([12]; 125 g ai/ha): 0
Plant response rating, Ragweed ([12]; 500 g ai/ha): 0
Plant response rating, Ryegrass, Italian ([13]; 125 g ai/ha): 0
Plant response rating, Ryegrass, Italian ([13]; 500 g ai/ha): 0
Plant response rating, Foxtail, Giant ([14]; 125 g ai/ha): 0
Plant response rating, Foxtail, Giant ([14]; 500 g ai/ha): 30
Plant response rating, Wheat ([15]; 125 g ai/ha): 0
Plant response rating, Wheat ([15]; 500 g ai/ha): 0
Plant response rating, Corn (corn (Zea mays); 125 g ai/ha): 0
Plant response rating, Corn (corn (Zea mays); 500 g ai/ha): 0
Plant response rating, Pigweed ([16]; 125 g ai/ha): 0
Plant response rating, Pigweed ([16]; 500 g ai/ha): 0
Plant response rating, Blackgrass ([17]; 125 g ai/ha): 0
Plant response rating, Blackgrass ([17]; 500 g ai/ha): 0
Plant response rating, Galium ([18]; 125 g ai/ha): 0
Plant response rating, Galium ([18]; 500 g ai/ha): 0
